For this series, the system named is high-fat-fed C57BL/6 mice. Briefly: High-fat-diet C57BL/6 mice, Compound 1 7.5 mg/kg with antagomiR-control or antagomiR-122. It is filed as in vivo. As for the experimental part: C57BL/6 mice were fed a 50% high fat diet (HFD) for four weeks. The control cohort received three hydrodynamic tail vein injections of a 5 μg antagomiR-control and six i.p injections of saline over three weeks. A second cohort was hydrodynamic tail vein injected with 5 μg antagomiR-122 (the reverse complement that inhibits activity of miR-122) three times and i.p injections of saline six times over three weeks. A third cohort was injected i.p. with Compound 1 (7.5 mg/kg) twice a week plus antagomiR-control once a week over the course of 3 weeks. The final cohort was injected i.p. with Compound 1 (7.5 mg/kg) twice a week plus antagomiR-122 injections once a week over the course of 3 weeks.
High Fat diet fed mice. C57BL/6 male mice were fed for 8 weeks a 50% high fat diet (Envigo, DIETTD150235). All mice were kept in a pathogen-free facility, under a 12 h light/dark cycle. Research on mice was approved by the Hebrew University Institutional Animal Care and Ethics Committee.
Compound 1 and AntagomiR injections to mice. C57BL/6 male mice, 7-8 weeks old, or Sgp130FC, 9-month-old male mice, were injected i.p. with 7.5 mg/kg Compound 1 dissolved in saline and 3% DMSO. Saline was injected as control. Mice were hydrodynamic tail vain injected with antagomiR-122 or antagomiR-control (negative control) (5 μg/mouse in 1.5 ml saline). Mice were sacrificed according to the legend of the figure describing the experimental results and the livers, white adipose and skeletal muscle tissues were frozen in liquid nitrogen or in OCT embedded frozen blocks, for further RNA and histologic analysis. AntagomiRs were obtained from Sigma Aldrich, see Table 3.
Triglycerides and β-hydroxybutyrate quantification. To determine the liver and muscle lipid content, muscle and liver tissues (40-80 mg) were homogenized in 0.5 ml of chloroform: Tris solution (v/v, 1:1), the homogenate was transferred to 1 ml of chloroform: methanol solution (v/v, 2:1) centrifuged at 3000 rpm for 10 min. The organic phase was mixed with 5% Triton X100 in chloroform, dried and re-dissolved in water. After lipid extraction, TG concentration in samples was measured with Triglyceride Quantification Kit (BioVision), according to the manufactures instructions. β-hydroxybutyrate was determined utilizing commercial colorimetric kits (BioVision) directly from plasma samples.
In an effort to determine whether the mechanism of action of miR-122 and Compound 1 are aligned at the same pathway, an experiment was designed in which both molecules, together and each separately, were administered. In this study, mice were fed with a 50% HFD and therapy was initiated 4 weeks after the animals were already on a diet, to establish NASH prior to treatment. Therapies (antagomiRs given once a week, due to a prolonged half time, and RS twice weekly, due to a plasma t/2 of 2.7 hrs) were initiated after 4 weeks and given for 3 weeks. The mice were weighed from week 3 and therapies initiated a week later. […] The liver was further analyzed to assess lipotoxicity. […] A surrogate marker for energy expenditure, β-hydroxybutyrate, was also measured. A reduction in energy expenditure is associated with reduced miR-122, and energy expenditure increased upon treating with Compound 1.
Male C57BL/6J mice, 7 to 8 weeks old, were housed randomly in standard cages and were fed a HFD, or atherogenic diet (consisting 1% Chol and 0.5% cholic acid, see also Table 3). All mice had free access to water during the experimental period. During the feeding period body weight was monitored every 3 days. In the HFD experiment, after 4 or 6 weeks, the resultant obese mice were treated with antagomiR-122 ([…] once a week for 3 weeks), or i.p. injected with Compound 1 (RORα agonist, 7.5 mg/kg twice a week for 3 weeks; or 15 mg/kg 3 times a week for 3 weeks). The obese control (HFD) group was administered only saline with DMSO and antagomiR-control. […]

Experimental findings from patent US12318393B2, “Modulators of orphan nuclear receptors for NASH and other metabolic disorders” (Emory University, priority 2018, dated 2025) are described below.

Regarding “antagomiR-122: small synthetic RNA, 2'-O-Me/phosphorothioate modified, cholesterol-linked, reverse complement that inhibits activity of miR-122 (antisense ACAAACACCAUUGUCACAC; 2'-O-methyl, phosphorothioate, cholesterol-linked, pattern not given here) [reference compound]”, for the setting “5 μg antagomiR hydrodynamic tail vein injection three times over three weeks, HFD”, the final body weight was found to be 32 g. For the setting “50% HFD, treatment for 3 weeks”, the “TG content in the muscle” value was “increased”.
